Results taken from ChEMBL document CHEMBL5143545, “Indolylarylsulfones bearing phenylboronic acid and phenylboronate ester functionalities as potent HIV‑1 non-nucleoside reverse transcriptase inhibitors” (Bioorg Med Chem, 2022).
Converted amounts (≈) assume the structure as drawn.

How the values were obtained:
[1] = system: Human immunodeficiency virus 1; assay: Antiviral activity against HIV1 with RT K103N mutant infected in human MT4 cells assessed as protection against viral-induced cytopathogenecity by MTT assay; assay type: functional, organism-based; conditions: Human immunodeficiency virus 1, MT4
[2] = system: Human immunodeficiency virus 1; assay: Antiviral activity against HIV1 with RT L100I mutant infected in human MT4 cells assessed as protection against viral-induced cytopathogenecity by MTT assay; assay type: functional, organism-based; conditions: Human immunodeficiency virus 1, MT4
[3] = system: Human immunodeficiency virus 1; assay: Antiviral activity against HIV1 with RT RES056 mutant infected in human MT4 cells assessed as protection against viral-induced cytopathogenecity by MTT assay; assay type: functional, organism-based; conditions: Human immunodeficiency virus 1, MT4
[4] = Toxicity in mock-infected human MT4 cells assessed as reduction in cell viability by MTT assay; assay type: cell-based
in vitro = conditions: human, MT4 cells, mock-infected (CC50) and HIV1 3B infected (EC50)
Description: Selectivity index, ratio of CC50 for toxicity in mock-infected human MT4 cells assessed as reduction in cell viability by MTT assay to EC50 for antiviral activity against HIV1 3B infected in human MT4 cells assessed as protection against viral-induced cytopathogenecity by MTT assay

[5] = system: Human immunodeficiency virus 1; assay: Antiviral activity against HIV1 with RT E138K mutant infected in human MT4 cells assessed as protection against viral-induced cytopathogenecity by MTT assay; assay type: functional, organism-based; conditions: Human immunodeficiency virus 1, MT4
[6] = system: Human immunodeficiency virus 1; assay: microbe, parasite or virus in culture; conditions: Human immunodeficiency virus 1, 3B, MT4
Description: Antiviral activity against HIV1 3B infected in human MT4 cells assessed as protection against viral-induced cytopathogenecity by MTT assay

[7] = system: Human immunodeficiency virus 1; assay type: functional, organism-based; conditions: Human immunodeficiency virus 1, MT4
[8] = system: Human immunodeficiency virus 1; assay type: functional, organism-based; conditions: Human immunodeficiency virus 1, MT4; remark: listed apart in the source
[9] = system: Human immunodeficiency virus 1; assay type: functional, organism-based; conditions: Human immunodeficiency virus 1, MT4; remark: listed apart in the source
[10] = target: Human immunodeficiency virus type 1 reverse transcriptase (Human immunodeficiency virus 1, UniProt Q72547); assay: Inhibition of HIV1 reverse transcriptase assessed as inhibition of biotin-dUTP incorporation
[11] = Solubility in water at pH 7; assay type: physicochemical
[12] = Solubility in water at pH 2; assay type: physicochemical
[13] = Solubility in water at pH 7.4; assay type: physicochemical

Compound	EC50 [1]	EC50 [2]	EC50 [3]	CC50 [4]	selectivity ratio (in vitro)	EC50 [5]	EC50 [6]	EC50 [7]	EC50 [8]	EC50 [9]	IC50 [10]	solubility [11]	solubility [12]	solubility [13]
Cc1cc(C)cc(S(=O)(=O)c2c(C(=O)NCCCNC(=O)c3ccc(B(O)O)cc3)[nH]c3ccc(Cl)cc23)c1	0.033 µM	0.021 µM	4.91 µM	24.7 µM	2240	0.0342 µM	0.0111 µM	0.19 µM	0.118 µM	2.23 µM	–	–	–	–
Cc1cc(C)cc(S(=O)(=O)c2c(C(=O)Nc3ccc(B(O)O)cc3)[nH]c3ccc(Cl)cc23)c1	0.041 µM	0.037 µM	> 856 µM	8.55 µM	712	0.0398 µM	0.012 µM	0.215 µM	0.0795 µM	> 1.62 µM	–	–	–	–
Cc1cc(C)cc(S(=O)(=O)c2c(C(=O)NCCCNC(=O)c3cccc(B(O)O)c3)[nH]c3ccc(Cl)cc23)c1	0.13 µM	0.11 µM	5.4 µM	24.2 µM	684	0.0844 µM	0.0354 µM	0.27 µM	0.22 µM	1.82 µM	–	–	–	–
Cc1cc(C)cc(S(=O)(=O)c2c(C(=O)NC3CCN(Cc4ccc(B(O)O)cc4)CC3)[nH]c3ccc(Cl)cc23)c1	0.31 µM	0.11 µM	> 19.3 µM	19.3 µM	615	0.646 µM	0.0314 µM	1.07 µM	1.31 µM	> 19.3 µM	–	–	–	–
Cc1cc(C)cc(S(=O)(=O)c2c(C(=O)NCc3ccc(B4OC(C)(C)C(C)(C)O4)cc3)[nH]c3ccc(Cl)cc23)c1	0.035 µM	0.014 µM	4.04 µM	23.9 µM	3550	0.045 µM	0.0067 µM	0.0699 µM	0.091 µM	2.59 µM	0.119 µM	35.8 µg/mL (≈ 61.8 µM)	73 µg/mL (≈ 126 µM)	37.7 µg/mL (≈ 65.1 µM)
Cc1cc(C)cc(S(=O)(=O)c2c(C(=O)NCc3cccc(B(O)O)c3)[nH]c3ccc(Cl)cc23)c1	0.0092 µM	0.0073 µM	1.51 µM	28 µM	3310	0.0503 µM	0.0085 µM	0.06 µM	0.021 µM	0.89 µM	0.123 µM	70 µg/mL (≈ 141 µM)	64 µg/mL (≈ 129 µM)	94.5 µg/mL (≈ 190 µM)
Cc1cc(C)cc(S(=O)(=O)c2c(C(=O)NCCNC(=O)c3cccc(B(O)O)c3)[nH]c3ccc(Cl)cc23)c1	0.57 µM	0.26 µM	> 21.1 µM	21.1 µM	517	0.243 µM	0.0408 µM	1.34 µM	0.98 µM	8.1 µM	–	–	–	–
Cc1cc(C)cc(S(=O)(=O)c2c(C(=O)Nc3ccc4c(c3)B(O)OC4)[nH]c3ccc(Cl)cc23)c1	0.11 µM	0.096 µM	> 8.41 µM	8.42 µM	457	0.0649 µM	0.0184 µM	0.47 µM	0.19 µM	> 1.96 µM	–	–	–	–
Cc1cc(C)cc(S(=O)(=O)c2c(C(=O)NCCNC(=O)c3ccc(B(O)O)cc3)[nH]c3ccc(Cl)cc23)c1	0.26 µM	0.23 µM	> 24.3 µM	24.4 µM	1230	0.162 µM	0.0198 µM	0.91 µM	0.7 µM	6.76 µM	–	–	–	–
Cc1cc(C)cc(S(=O)(=O)c2c(C(=O)Nc3cccc(B(O)O)c3)[nH]c3ccc(Cl)cc23)c1	0.1 µM	0.0875 µM	> 5.3 µM	5.31 µM	282	0.0676 µM	0.0189 µM	0.85 µM	0.2 µM	> 5.3 µM	–	–	–	–
Cc1cc(C)cc(S(=O)(=O)c2c(C(=O)NC3CCN(Cc4cccc(B(O)O)c4)CC3)[nH]c3ccc(Cl)cc23)c1	0.51 µM	0.28 µM	> 6.43 µM	6.43 µM	151	0.717 µM	0.0426 µM	1.19 µM	> 1.19 µM	> 6.43 µM	–	–	–	–
Cc1cc(C)cc(S(=O)(=O)c2c(C(=O)NCc3ccc(B(O)O)cc3)[nH]c3ccc(Cl)cc23)c1	0.032 µM	0.0094 µM	4.64 µM	27.7 µM	3140	0.0537 µM	0.0088 µM	0.12 µM	0.115 µM	3.86 µM	–	–	–	–
Cc1cc(C)cc(S(=O)(=O)c2c(C(N)=O)[nH]c3ccc(Cl)cc23)c1	0.02 µM	0.01 µM	> 7.08 µM	7.08 µM	2570	0.01 µM	0.0028 µM	0.03 µM	0.08 µM	1.17 µM	0.0048 µM	58.3 µg/mL (≈ 161 µM)	71.2 µg/mL (≈ 196 µM)	29 µg/mL (≈ 79.9 µM)
O=C1Nc2ccc(Cl)cc2[C@@](C#CC2CC2)(C(F)(F)F)O1 [EFAVIRENZ]	–	–	0.33 µM	> 6.34 µM	–	0.0066 µM	–	0.0063 µM	–	0.21 µM	–	–	–	–
Cc1cc(C#N)cc(C)c1Oc1nc(Nc2ccc(C#N)cc2)nc(N)c1Br [ETRAVIRINE]	–	0.0076 µM	0.066 µM	> 4.59 µM	–	0.019 µM	0.0029 µM	–	0.02 µM	–	–	< 2 µg/mL	< 3 µg/mL	< 1 µg/mL
Nc1ccn([C@@H]2CS[C@H](CO)O2)c(=O)n1 [LAMIVUDINE]	2.79 µM	1.15 µM	5.06 µM	> 87.2 µM	> 309	8.27 µM	5.23 µM	3.4 µM	2.17 µM	4.56 µM	–	–	–	–
Cc1ccnc2c1NC(=O)c1cccnc1N2C1CC1 [NEVIRAPINE]	–	–	> 1500 µM	> 15 µM	–	–	0.16 µM	11 µM	> 1500 µM	> 1500 µM	–	–	–	–
Cc1cn([C@H]2C[C@H](N=[N+]=[N-])[C@@H](CO)O2)c(=O)[nH]c1=O [ZIDOVUDINE]	0.022 µM	0.0093 µM	–	> 7.48 µM	> 352	0.0347 µM	0.0212 µM	0.015 µM	0.0097 µM	0.012 µM	–	–	–	–
